Laboratory results: the NIST ThermoML archive (doi:10.1021/je500513b)
± gives the expanded uncertainty stated by the source.

Assay: mn = molality of the nth substance listed, in mol/kg
Conditions: for surface tension liquid-gas: Pendant drop shape; for electrical conductivity: 100 kPa, Liquid, Mettler Toledo inLab 710

CCCCCCCCCCCC[N+](C)(C)CCCCCC[N+](C)(C)CCCCCCCCCCCC.[Br-].[Br-] + O
surface tension liquid-gas (298.15 K, m1 = 0.0001): 61.45 ± 2 mN/m
surface tension liquid-gas (298.15 K, m1 = 0.0002): 53.1 ± 1 mN/m
surface tension liquid-gas (298.15 K, m1 = 0.0004): 47.33 ± 0.7 mN/m
surface tension liquid-gas (298.15 K, m1 = 0.0006): 42.35 ± 0.64 mN/m
surface tension liquid-gas (298.15 K, m1 = 0.0007): 40.01 ± 0.57 mN/m
surface tension liquid-gas (298.15 K, m1 = 0.0008): 38.21 ± 0.46 mN/m
surface tension liquid-gas (298.15 K, m1 = 0.00085): 38.13 ± 0.38 mN/m
surface tension liquid-gas (298.15 K, m1 = 0.0009): 37.83 ± 0.38 mN/m
surface tension liquid-gas (298.15 K, m1 = 0.001): 37.53 ± 0.37 mN/m
surface tension liquid-gas (298.15 K, m1 = 0.0011): 37.34 ± 0.37 mN/m
surface tension liquid-gas (298.15 K, m1 = 0.0012): 37.28 ± 0.37 mN/m
surface tension liquid-gas (298.15 K, m1 = 0.0015): 37.38 ± 0.37 mN/m
surface tension liquid-gas (298.15 K, m1 = 0.002): 37.23 ± 0.37 mN/m
electrical conductivity (298.15 K, m1 = 0.00056): 0.0115 ± 0.0005 S/m
electrical conductivity (298.15 K, m1 = 0.00059): 0.0123 ± 0.0005 S/m
electrical conductivity (298.15 K, m1 = 0.00063): 0.0132 ± 0.0004 S/m
electrical conductivity (298.15 K, m1 = 0.00067): 0.0138 ± 0.0004 S/m
electrical conductivity (298.15 K, m1 = 0.00071): 0.0147 ± 0.0004 S/m
electrical conductivity (298.15 K, m1 = 0.00077): 0.0159 ± 0.0004 S/m
electrical conductivity (298.15 K, m1 = 0.00083): 0.017 ± 0.0004 S/m
electrical conductivity (298.15 K, m1 = 0.00087): 0.0176 ± 0.0004 S/m
electrical conductivity (298.15 K, m1 = 0.00091): 0.0182 ± 0.0004 S/m
electrical conductivity (298.15 K, m1 = 0.00095): 0.0188 ± 0.0003 S/m
electrical conductivity (298.15 K, m1 = 0.001): 0.0194 ± 0.0003 S/m
electrical conductivity (298.15 K, m1 = 0.00105): 0.02 ± 0.0003 S/m
electrical conductivity (298.15 K, m1 = 0.00111): 0.0206 ± 0.0003 S/m
electrical conductivity (298.15 K, m1 = 0.00118): 0.0212 ± 0.0003 S/m
electrical conductivity (298.15 K, m1 = 0.00125): 0.0219 ± 0.0003 S/m
electrical conductivity (298.15 K, m1 = 0.00133): 0.0225 ± 0.0003 S/m
electrical conductivity (298.15 K, m1 = 0.00143): 0.0231 ± 0.0003 S/m
electrical conductivity (298.15 K, m1 = 0.00154): 0.024 ± 0.0003 S/m
electrical conductivity (298.15 K, m1 = 0.00167): 0.0249 ± 0.0003 S/m
electrical conductivity (298.15 K, m1 = 0.00182): 0.0259 ± 0.0003 S/m
electrical conductivity (298.15 K, m1 = 0.002): 0.0269 ± 0.0003 S/m
electrical conductivity (303.15 K, m1 = 0.00057): 0.0136 ± 0.0005 S/m
electrical conductivity (303.15 K, m1 = 0.00061): 0.0143 ± 0.0004 S/m
electrical conductivity (303.15 K, m1 = 0.00065): 0.0151 ± 0.0004 S/m
electrical conductivity (303.15 K, m1 = 0.00068): 0.0158 ± 0.0005 S/m
electrical conductivity (303.15 K, m1 = 0.00071): 0.0166 ± 0.0005 S/m
electrical conductivity (303.15 K, m1 = 0.00075): 0.0173 ± 0.0004 S/m
electrical conductivity (303.15 K, m1 = 0.0008): 0.0183 ± 0.0004 S/m
electrical conductivity (303.15 K, m1 = 0.00083): 0.0189 ± 0.0004 S/m
electrical conductivity (303.15 K, m1 = 0.00087): 0.0196 ± 0.0004 S/m
electrical conductivity (303.15 K, m1 = 0.00091): 0.0202 ± 0.0004 S/m
electrical conductivity (303.15 K, m1 = 0.00095): 0.0209 ± 0.0004 S/m
electrical conductivity (303.15 K, m1 = 0.001): 0.0216 ± 0.0004 S/m
electrical conductivity (303.15 K, m1 = 0.00105): 0.0223 ± 0.0003 S/m
electrical conductivity (303.15 K, m1 = 0.00111): 0.023 ± 0.0003 S/m
electrical conductivity (303.15 K, m1 = 0.00118): 0.0237 ± 0.0003 S/m
electrical conductivity (303.15 K, m1 = 0.00125): 0.0244 ± 0.0003 S/m
electrical conductivity (303.15 K, m1 = 0.00133): 0.0252 ± 0.0003 S/m
electrical conductivity (303.15 K, m1 = 0.00143): 0.0261 ± 0.0003 S/m
electrical conductivity (303.15 K, m1 = 0.00154): 0.027 ± 0.0003 S/m
electrical conductivity (303.15 K, m1 = 0.0016): 0.0276 ± 0.0003 S/m
electrical conductivity (303.15 K, m1 = 0.00167): 0.0281 ± 0.0003 S/m
electrical conductivity (303.15 K, m1 = 0.00174): 0.0287 ± 0.0003 S/m
electrical conductivity (303.15 K, m1 = 0.00182): 0.0293 ± 0.0003 S/m
electrical conductivity (303.15 K, m1 = 0.0019): 0.03 ± 0.0003 S/m
electrical conductivity (303.15 K, m1 = 0.002): 0.0307 ± 0.0003 S/m
electrical conductivity (308.15 K, m1 = 0.00065): 0.0167 ± 0.0006 S/m
electrical conductivity (308.15 K, m1 = 0.00068): 0.0175 ± 0.0005 S/m
electrical conductivity (308.15 K, m1 = 0.00071): 0.0182 ± 0.0005 S/m
electrical conductivity (308.15 K, m1 = 0.00075): 0.0193 ± 0.0005 S/m
electrical conductivity (308.15 K, m1 = 0.0008): 0.0203 ± 0.0004 S/m
electrical conductivity (308.15 K, m1 = 0.00083): 0.0209 ± 0.0005 S/m
electrical conductivity (308.15 K, m1 = 0.00087): 0.0217 ± 0.0005 S/m
electrical conductivity (308.15 K, m1 = 0.00091): 0.0225 ± 0.0004 S/m
electrical conductivity (308.15 K, m1 = 0.00095): 0.0232 ± 0.0004 S/m
electrical conductivity (308.15 K, m1 = 0.001): 0.024 ± 0.0004 S/m
electrical conductivity (308.15 K, m1 = 0.00105): 0.0248 ± 0.0004 S/m
electrical conductivity (308.15 K, m1 = 0.00111): 0.0257 ± 0.0004 S/m
electrical conductivity (308.15 K, m1 = 0.00118): 0.0266 ± 0.0004 S/m
electrical conductivity (308.15 K, m1 = 0.00125): 0.0275 ± 0.0004 S/m
electrical conductivity (308.15 K, m1 = 0.00133): 0.0284 ± 0.0004 S/m
electrical conductivity (308.15 K, m1 = 0.00143): 0.0294 ± 0.0004 S/m
electrical conductivity (308.15 K, m1 = 0.00154): 0.0306 ± 0.0004 S/m
electrical conductivity (308.15 K, m1 = 0.0016): 0.0312 ± 0.0004 S/m
